Measured values taken from publication PMC12838157, “A Multikinase Inhibitor AX-0085 Blocks FGFR1 Activation to Overcomes Osimertinib Resistance in Non-Small Cell Lung Cancer” (Biomedicines, 2025).

Legend:
[1] = target: FGFR1 (fibroblast growth factor receptor 1) (Homo sapiens, UniProt P11362); assay: kinase assay IC50 (called cell-based kinase assay in the Figure […] legend); also reduced phospho-FGFR1 in HCC827-osi cells
AXL = target: T1, AXL (Homo sapiens, UniProt P30530); assay: kinase assay IC50 (called cell-based kinase assay in the Figure […] legend); also reduced phospho-AXL in HCC827-osi cells
T1 sequence (P30530 26-894): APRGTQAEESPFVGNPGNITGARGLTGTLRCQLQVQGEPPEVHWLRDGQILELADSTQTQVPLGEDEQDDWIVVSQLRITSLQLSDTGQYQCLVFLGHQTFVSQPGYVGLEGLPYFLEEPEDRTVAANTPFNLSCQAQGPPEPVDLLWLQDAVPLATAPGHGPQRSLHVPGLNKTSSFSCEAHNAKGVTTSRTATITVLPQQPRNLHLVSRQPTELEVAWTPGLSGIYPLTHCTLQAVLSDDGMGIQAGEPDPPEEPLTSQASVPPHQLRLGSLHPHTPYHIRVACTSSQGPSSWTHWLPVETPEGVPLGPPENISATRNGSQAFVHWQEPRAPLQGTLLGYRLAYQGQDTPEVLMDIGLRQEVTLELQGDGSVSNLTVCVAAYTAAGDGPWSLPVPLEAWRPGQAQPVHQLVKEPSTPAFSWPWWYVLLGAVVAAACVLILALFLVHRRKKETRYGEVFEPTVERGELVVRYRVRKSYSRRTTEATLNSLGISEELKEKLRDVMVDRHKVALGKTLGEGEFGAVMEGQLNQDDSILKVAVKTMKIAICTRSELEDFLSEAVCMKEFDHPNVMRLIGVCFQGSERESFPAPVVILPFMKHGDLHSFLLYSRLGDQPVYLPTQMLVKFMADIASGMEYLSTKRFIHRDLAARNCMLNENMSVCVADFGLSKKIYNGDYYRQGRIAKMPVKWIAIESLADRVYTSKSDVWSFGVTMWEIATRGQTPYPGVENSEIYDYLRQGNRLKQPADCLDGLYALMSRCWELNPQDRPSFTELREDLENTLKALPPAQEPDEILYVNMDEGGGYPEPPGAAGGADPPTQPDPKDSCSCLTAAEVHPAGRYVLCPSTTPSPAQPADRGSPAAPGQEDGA

Sequence of FGFR1 (fibroblast growth factor receptor 1) (P11362 22-822): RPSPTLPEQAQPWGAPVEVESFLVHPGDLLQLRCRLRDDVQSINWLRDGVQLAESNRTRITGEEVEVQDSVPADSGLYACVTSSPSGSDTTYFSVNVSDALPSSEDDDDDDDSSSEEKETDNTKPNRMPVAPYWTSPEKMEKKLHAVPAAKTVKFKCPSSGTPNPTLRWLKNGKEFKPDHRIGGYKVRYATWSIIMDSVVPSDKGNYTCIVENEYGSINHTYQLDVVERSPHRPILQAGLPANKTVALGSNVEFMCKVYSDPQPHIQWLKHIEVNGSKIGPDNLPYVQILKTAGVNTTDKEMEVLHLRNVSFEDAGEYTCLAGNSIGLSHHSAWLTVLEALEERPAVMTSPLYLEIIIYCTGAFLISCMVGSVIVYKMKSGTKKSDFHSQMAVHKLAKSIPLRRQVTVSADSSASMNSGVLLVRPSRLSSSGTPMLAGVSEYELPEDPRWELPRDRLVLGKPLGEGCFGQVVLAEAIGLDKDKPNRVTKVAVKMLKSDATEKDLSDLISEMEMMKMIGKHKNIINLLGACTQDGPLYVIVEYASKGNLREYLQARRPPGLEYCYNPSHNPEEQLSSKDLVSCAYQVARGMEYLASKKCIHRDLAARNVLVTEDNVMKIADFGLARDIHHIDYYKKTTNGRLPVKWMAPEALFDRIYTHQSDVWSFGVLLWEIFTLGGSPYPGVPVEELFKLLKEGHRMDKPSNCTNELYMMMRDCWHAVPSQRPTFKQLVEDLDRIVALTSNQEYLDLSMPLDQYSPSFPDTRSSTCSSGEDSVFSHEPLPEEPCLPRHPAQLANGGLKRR

Compound: CN1C(=O)N(c2cc(NC(=O)c3cccc(C(F)(F)F)c3)cnc2Cl)Cc2cnc(Nc3ccccc3)nc21 [AX-0085]
- IC50 [1]: 2.2 nM
- IC50 (AXL): 4.4 nM
